{"source": "patent US12194080B2", "about": "“Methods for identification, assessment, prevention, and treatment of metabolic disorders using PM20D1 and N-lipidated amino acids” (Dana-Farber Cancer Institute, Inc., priority 2015, dated 2025)", "key": {"[1]": {"system": "Diet induced obese (DIO) mice", "test": "Indirect calorimetry (CLAMS) of high fat diet/DIO mice treated with N-acyl amino acids", "assay_type": "in vivo, mouse", "details": "daily i.p.: C18:1-Leu 25, C18:1-Phe 30, C20:4-Gly 15 mg/kg/day", "experimental": "(§1) Animal experiments were performed according to procedures approved by the Beth Israel Deaconess Medical Center IACUC. Mice were maintained in 12 h light-dark cycles at 22° C. and fed a standard irradiated rodent chow diet. All experiments on wild-type mice were performed with male C57BL/6 mice purchased from Jackson Laboratories, except for the AAV experiments, which were performed with male C57BL/6 mice from Charles River. UCP1-KO (stock #017476) and 16-20 week DIO mice (stock #380050) were obtained from Jackson Laboratories. For AAV injection experiments, mice were gently warmed using a 250 W clear infrared heat lamp, immobilized, and injected via tail vein with 10^10 virus/mouse (diluted in saline) in a total volume of 100 μl/mouse. Where indicated, mice were placed on high-fat diet (60% fat, Research Diets). For cold exposure experiments, mice were group housed and placed at 4° C. for the indicated times. For the preparation of C18:1-Phe for in vivo injections, compounds were dissolved in 18:1:1 v/v/v saline:Kolliphor® EL (Sigma Aldrich):DMSO and sonicated until homogeneous. Mice were administered compounds at 5 μl/g body weight at the indicated doses. For all injection experiments, mice were mock injected with saline daily for 3 days prior to the start of the experiments. For glucose tolerance tests (GTTs), mice received their final dose of compound the day prior to the assay and were then fasted overnight. Glucose was administered at 1.5 g/kg.\n(§2) Energy expenditure, O2 consumption, CO2 production, respiratory exchange ratio, total locomotor activity, and food intake measurements were made with a 16-cage Columbus Instruments Oxymax Comprehensive Lab Animal Monitoring System (CLAMS) at ambient room temperature (21-23° C.). Mice were acclimated for one day in metabolic cages prior to data collection. Whole-body composition was assessed with an EchoMRI™ 3-in-1 on conscious mice."}, "[2]": {"system": "primary inguinal fat cells, primary BAT cells, C2C12 cells, and U2OS cells", "test": "Uncoupled respiration cellular assays (variety of cell types)", "assay_type": "cell-based", "details": "N-acyl amino acids at 10-100 uM", "experimental": "(§3) Cellular oxygen consumption rates were determined using an XF24 Extracellular Flux Analyzer (Seahorse Biosciences). Oligomycin was purchased from EMD Millipore, and FCCP and rotenone were purchased from Sigma. C2C12 or U2OS cells were seeded at 30,000 or 50,000 cells/well, respectively in an XF24 cell culture microplate (V7-PS, Seahorse Bioscience) and analyzed the following day. Primary iWAT or BAT adipocytes were seeded at 15,000 cells/well, differentiation was induced the following day as described, and the cells were analyzed on day 5. On the day of analysis, the cells were washed once with Seahorse respiration buffer (8.3 g/1 DMEM, 1.8 g/l NaCl, 1 mM pyruvate, 20 mM glucose, pen/strep), placed in 0.5 ml Seahorse respiration buffer, and incubated in a CO2-free incubator for 1 hr. Port injection solutions were prepared as follows (final concentrations in assay in parentheses): 10 μM oligomycin (1 μM final), […] amino acid (50 μM final), 2 μM FCCP (0.2 μM final), and 30 μM rotenone (3 μM final). The Seahorse program was run as follows: basal measurement, 3 cycles; inject port A (oligomycin), 3 cycles; inject port B (compounds), 8 cycles; inject port C (FCCP), 3 cycles; inject port D (rotenone), 3 cycles. Each cycle consisted of mix 4 min, wait 0 min, and measure 2 min. For data expressed as a percentage of oligomycin-treated basal, the respiration at cycle 6 was normalized to 100%, and the maximum respiration at any time point between cycles 7 and 15 inclusive was used."}, "[3]": {"system": "differentiated primary iWAT cells", "test": "Cellular oxygen consumption rate (Seahorse XF24), differentiated primary iWAT adipocytes", "assay_type": "cell-based, mouse", "details": "50 μM, in presence of oligomycin (1 μM)", "experimental": "C2C12, U2O5, and 293A cells were cultured in DMEM with 10% FBS and pen/strep. Primary inguinal (iWAT) and brown (BAT) adipocytes were obtained as follows. The stromal-vascular fraction of inguinal (iWAT) pad from 4-12 week old male mice was dissected, minced, and digested for 45 min. at 37° C. in PBS containing 10 mM CaCl2, 2.4 U/ml dispase II (Roche), and 1.5 U/ml collagenase D (Roche). The stromal-vascular fraction of brown fat (BAT) pads from newborn (P1-P14) pups was dissected, minced, and digested for 45 min at 37° C. in PBS containing 1.3 mM CaCl2, 120 mM NaCl, 5 mM KCl, 5 mM glucose, 100 mM HEPES, 4% BSA, and 1.5 mg/ml collagenase B (Roche). Digested tissue was diluted with adipocyte culture media (DMEM/F-12, GlutaMAX™ supplement, Life Technologies, with 10% FBS and pen/strep) and centrifuged (600×g for 10 min.). The pellet was resuspended in 10 ml adipocyte culture media, strained through a 40 μm filter, and plated. Differentiation was induced by application of an adipogenic cocktail containing 5 μg/ml insulin (Sigma), 5 μM dexamethasone (Sigma), 250 μM isobutylmethylxanthine (Sigma), and 1 μM rosiglitazone (Cayman) for 2 days. Two days after induction, cells were maintained in adipocyte culture media containing 5 μg/ml insulin and 1 μM rosiglitazone.\nas §3"}, "[4]": {"test": "Plasma AST, ALT and cytokine array after chronic treatment of DIO mice", "assay_type": "in vivo, mouse", "details": "9 days chronic treatment, versus vehicle", "experimental": "FIG. 14 includes 11 panels, identified as panels A, B, C, D, E, F, G, H, I, J, and K, which show the effects of chronic C20:4-Gly administration to mice. Panels A-F show the change in body weight (Panel A), daily and cumulative food intake (Panels B and C), and total body weight at day 7 (Panel D), VO2 (Panel E), and movement (Panel F) of 14 week DIO mice treated daily with vehicle or C20:4-Gly (20 mg/kg/day, i.p.). For Panels E and F, measurements were recorded for 2 days following 7 days chronic treatment with vehicle or C20:4-Gly (20 mg/kg/day, i.p.); during this time daily administration of the indicated compounds continued. […] Panels G-J show plasma AST (Panel G), ALT (Panel H), and plasma cytokine array profiling (Panels I and J) following 9 days chronic treatment with vehicle or C20:4-Gly (20 mg/kg/day, i.p.). For Panels G-J, plasma was collected 24 hr following the last dose of vehicle or C20:4-Gly. For Panels A-H, n=8/group, mean±SEM, *p<0.05, **p<0.01. For Panels I and J, plasma from 4 mice/group were pooled for each array."}, "[5]": {"system": "Diet induced obese (DIO) mice", "test": "Chronic daily i.p. administration of N-acyl amino acids to DIO mice (body weight, food intake, body composition, GTT)", "assay_type": "in vivo, mouse", "details": "chronic treatment, C18:1-Phe 30 or 50 mg/kg/day, C20:4-Gly 15 mg/kg/day, i.p.", "experimental": "as §1, §2"}, "[6]": {"system": "C2C12 cells", "test": "Mitochondrial membrane potential by TMRM fluorescence", "assay_type": "cell-based, mouse", "details": "20 min", "experimental": "Mitochondrial membrane potential was measured using tetramethylrhodamine methyl ester (TMRM, Life Technologies) fluorescence. C2C12 cells were plated in 6-well plates and grown to 80-90% confluence. Cells were then washed once with PBS and switched into Seahorse respiration buffer with the indicated compounds at the indicated concentrations: TMRM (100 nM), oligomycin (1 μM), FCCP (0.4 μM), and C18:1-Phe (10 or 50 μM). After 20 min. incubation at 37° C., the media was aspirated, cells were washed once with PBS, and trypsinized. Trypsinized cells were directly resuspended in PBS (total volume 300 μl), stored on ice, and analyzed on a FACSCanto™ II (BD Biosciences) with 20,000 events per sample."}}}
{"smiles": "CCCCC/C=C\\C/C=C\\C/C=C\\C/C=C\\CCCC(=O)NCC(=O)O", "note": "[C20:4-Gly, N-arachidonoyl glycine]", "values": [{"measurement": "VO2", "setting": "[1]", "result": "significantly augmented"}, {"measurement": "movement", "setting": "[1]", "result": "no effects"}, {"measurement": "uncoupled respiration in cells", "setting": "[2]", "result": "increased uncoupled respiration"}, {"measurement": "maximal OCR versus DMSO at the same time point", "setting": "[3]", "result": 285, "unit": "%"}, {"measurement": "maximal OCR versus oligomycin-treated basal respiration", "setting": "[3]", "result": 295, "unit": "%"}, {"measurement": "plasma ALT", "setting": "[4]", "result": "no sigificant elevations"}, {"measurement": "plasma AST", "setting": "[4]", "result": "no sigificant elevations"}, {"measurement": "plasma cytokines", "setting": "[4]", "result": "no sigificant elevations"}, {"measurement": "food intake", "setting": "[5]", "result": "reduced food intake"}]}
{"smiles": "CC[C@H]1/C=C/C=C/C[C@@H](C)[C@H](O)[C@@](C)(O)C(=O)[C@@H](C)[C@H](O)[C@@H](C)C(=O)[C@@H](C)[C@H](O)[C@@H](C)/C=C/C(=O)O[C@@H]2[C@H](C)[C@H](CC1)O[C@]1(CC[C@H](C)[C@H](C[C@@H](C)O)O1)[C@H]2C", "note": "[oligomycin]", "values": [{"measurement": "mitochondrial membrane potential", "setting": "[6]; TMRM fluorescence", "result": "increased the membrane potential"}]}
{"smiles": "N#CC(C#N)=NNc1ccc(OC(F)(F)F)cc1", "note": "[FCCP]", "values": [{"measurement": "decrease of TMRM fluorescence", "setting": "[6]; co-treatment with oligomycin 1 μM, C18:1-Phe 50 μM, FCCP 0.4 μM", "result": "~70", "unit": "%"}]}
